In PMC3914206:

What was measured:
Format in all cases: binding
Conditions in all cases: Compound Concentration 10 µM
panel of 442 kinases [1] = biological target: T1, panel of 442 kinases (Homo sapiens, UniProt Q13188)
T1 construct: purchased KINOMEscan
T1 sequence (Q13188 1-491): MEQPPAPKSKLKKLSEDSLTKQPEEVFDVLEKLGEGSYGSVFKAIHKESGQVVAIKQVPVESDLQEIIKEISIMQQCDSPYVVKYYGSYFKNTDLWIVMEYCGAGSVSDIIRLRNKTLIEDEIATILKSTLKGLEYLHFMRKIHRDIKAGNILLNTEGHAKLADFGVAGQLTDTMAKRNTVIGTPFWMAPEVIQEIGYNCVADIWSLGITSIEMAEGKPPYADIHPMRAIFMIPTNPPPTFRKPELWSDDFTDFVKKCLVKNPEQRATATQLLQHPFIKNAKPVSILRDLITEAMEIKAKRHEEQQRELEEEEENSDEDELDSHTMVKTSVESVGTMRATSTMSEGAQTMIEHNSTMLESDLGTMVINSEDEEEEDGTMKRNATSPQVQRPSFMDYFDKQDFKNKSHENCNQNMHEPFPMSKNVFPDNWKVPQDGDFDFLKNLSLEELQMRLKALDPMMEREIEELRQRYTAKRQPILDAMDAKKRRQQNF
Text: (§1) We assessed the selectivity of members of this scaffold using the KINOMEscan methodology across a near comprehensive panel of 442 kinases [[18,27]].

panel of 442 kinases [2] = biological target: T2, panel of 442 kinases (Homo sapiens, UniProt P15056)
T2 construct: purchased KINOMEscan
T2 sequence (P15056 whole entry): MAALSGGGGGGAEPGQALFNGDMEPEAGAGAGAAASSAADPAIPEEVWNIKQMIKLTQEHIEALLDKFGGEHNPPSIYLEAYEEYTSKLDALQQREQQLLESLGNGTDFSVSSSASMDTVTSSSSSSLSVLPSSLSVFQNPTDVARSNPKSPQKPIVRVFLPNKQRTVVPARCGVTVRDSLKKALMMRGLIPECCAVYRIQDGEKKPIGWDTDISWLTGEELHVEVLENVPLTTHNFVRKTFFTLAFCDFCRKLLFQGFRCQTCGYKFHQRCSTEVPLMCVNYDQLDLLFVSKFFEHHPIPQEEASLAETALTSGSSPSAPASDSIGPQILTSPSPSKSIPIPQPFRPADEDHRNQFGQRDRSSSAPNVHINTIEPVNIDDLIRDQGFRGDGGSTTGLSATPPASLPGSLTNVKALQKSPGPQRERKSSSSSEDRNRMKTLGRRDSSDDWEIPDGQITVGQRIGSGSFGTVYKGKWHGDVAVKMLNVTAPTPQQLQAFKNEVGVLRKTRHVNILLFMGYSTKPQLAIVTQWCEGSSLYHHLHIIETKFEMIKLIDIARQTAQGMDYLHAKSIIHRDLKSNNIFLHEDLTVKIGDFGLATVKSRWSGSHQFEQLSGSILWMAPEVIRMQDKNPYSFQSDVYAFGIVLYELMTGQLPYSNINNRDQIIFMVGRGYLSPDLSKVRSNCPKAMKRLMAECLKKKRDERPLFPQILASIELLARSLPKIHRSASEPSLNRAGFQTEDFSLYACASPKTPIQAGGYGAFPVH
Text: as §1

panel of 442 kinases [3] = biological target: T3, panel of 442 kinases (Homo sapiens, UniProt P10721, L576P)
T3 construct: purchased KINOMEscan
T3 sequence (P10721 26-976 L576P): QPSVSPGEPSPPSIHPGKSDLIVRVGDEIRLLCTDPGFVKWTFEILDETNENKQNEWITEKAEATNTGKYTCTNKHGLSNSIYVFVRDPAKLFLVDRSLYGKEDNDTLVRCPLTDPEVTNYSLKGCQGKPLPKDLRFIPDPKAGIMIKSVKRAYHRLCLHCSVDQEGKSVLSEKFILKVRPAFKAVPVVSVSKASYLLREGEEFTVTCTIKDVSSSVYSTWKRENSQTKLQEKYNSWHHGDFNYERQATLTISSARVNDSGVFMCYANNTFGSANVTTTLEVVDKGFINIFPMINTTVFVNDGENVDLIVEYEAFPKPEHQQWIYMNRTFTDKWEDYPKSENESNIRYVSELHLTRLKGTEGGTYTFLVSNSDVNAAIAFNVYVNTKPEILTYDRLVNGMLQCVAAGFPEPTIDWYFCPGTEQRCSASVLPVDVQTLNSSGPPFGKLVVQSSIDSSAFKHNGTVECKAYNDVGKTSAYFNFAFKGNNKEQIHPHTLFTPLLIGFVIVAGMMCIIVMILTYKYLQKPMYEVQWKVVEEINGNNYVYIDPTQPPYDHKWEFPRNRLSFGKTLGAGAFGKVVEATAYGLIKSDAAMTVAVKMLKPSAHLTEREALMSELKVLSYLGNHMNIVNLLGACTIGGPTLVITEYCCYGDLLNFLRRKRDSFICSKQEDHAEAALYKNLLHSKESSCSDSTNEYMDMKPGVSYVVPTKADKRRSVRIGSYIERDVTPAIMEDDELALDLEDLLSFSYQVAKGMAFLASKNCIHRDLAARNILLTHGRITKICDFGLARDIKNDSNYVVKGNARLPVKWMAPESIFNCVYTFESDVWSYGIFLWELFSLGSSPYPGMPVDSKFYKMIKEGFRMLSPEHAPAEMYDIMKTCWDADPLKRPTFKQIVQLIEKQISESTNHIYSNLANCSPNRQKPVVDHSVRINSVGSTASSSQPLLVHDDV
Text: as §1

SMILES | KINOMEscan: MST2 (panel of 442 kinases [1]) | KINOMEscan: BRAF (panel of 442 kinases [2]) | KINOMEscan: KIT(L576P) (panel of 442 kinases [3])
CCOc1cc(C(=O)N2CCC(N3CCN(C)CC3)CC2)ccc1Nc1ncc2c(n1)N(C1CCCC1)c1ccccc1C(=O)N2C [Compound 26] | 100 | 90 | 100
COc1cc(C(=O)N2CCC(N3CCN(C)CC3)CC2)ccc1Nc1ncc2c(n1)N(C)c1ccccc1C(=O)N2C [15 (LRRK2-IN-1)] | 71 | 81 | 100
COc1cc(C(=O)N2CCC(N3CCN(C)CC3)CC2)ccc1Nc1ncc2c(n1)N(C1CCCC1)c1ccccc1C(=O)N2C [Compound 25, 11-cyclopentyl-2-((2-methoxy-4-(4-(4-methylpiperazin-1-yl)piperidine-1-carbonyl)phenyl)amino)-5-methyl-5H-benzo[e]pyrimido[5,4-b][1,4]diazepin-6(11H)-one] | 100 | 100 | 93
